Data on twelve molecules can be found in ChEMBL document CHEMBL6092149, “Discovery of 1(2H)-phthalazinone and 1(2H)-isoquinolinone derivatives as potent hematopoietic progenitor kinase 1 (HPK1) inhibitors” (Eur J Med Chem, 2024).

Activity calls are given as the source filed them. A value given as a limit tells only on which side of the number the result lay.

In data set [1] the target is T1, Mitogen-activated protein kinase kinase kinase kinase 1 (Homo sapiens, UniProt Q92918). The experiment in a line: Inhibition of N-terminal DYKDDDDK recombinant human HPK1 (1 to 346 residues) expressed in Sf21 insect cells preincubated for 10 min followed by fluorescein PKC and ATP addition and measured after 90 min by Envision2104 Multilabel Reader analysis.
Target sequence in this assay (Q92918 whole entry, the tested form may be a part): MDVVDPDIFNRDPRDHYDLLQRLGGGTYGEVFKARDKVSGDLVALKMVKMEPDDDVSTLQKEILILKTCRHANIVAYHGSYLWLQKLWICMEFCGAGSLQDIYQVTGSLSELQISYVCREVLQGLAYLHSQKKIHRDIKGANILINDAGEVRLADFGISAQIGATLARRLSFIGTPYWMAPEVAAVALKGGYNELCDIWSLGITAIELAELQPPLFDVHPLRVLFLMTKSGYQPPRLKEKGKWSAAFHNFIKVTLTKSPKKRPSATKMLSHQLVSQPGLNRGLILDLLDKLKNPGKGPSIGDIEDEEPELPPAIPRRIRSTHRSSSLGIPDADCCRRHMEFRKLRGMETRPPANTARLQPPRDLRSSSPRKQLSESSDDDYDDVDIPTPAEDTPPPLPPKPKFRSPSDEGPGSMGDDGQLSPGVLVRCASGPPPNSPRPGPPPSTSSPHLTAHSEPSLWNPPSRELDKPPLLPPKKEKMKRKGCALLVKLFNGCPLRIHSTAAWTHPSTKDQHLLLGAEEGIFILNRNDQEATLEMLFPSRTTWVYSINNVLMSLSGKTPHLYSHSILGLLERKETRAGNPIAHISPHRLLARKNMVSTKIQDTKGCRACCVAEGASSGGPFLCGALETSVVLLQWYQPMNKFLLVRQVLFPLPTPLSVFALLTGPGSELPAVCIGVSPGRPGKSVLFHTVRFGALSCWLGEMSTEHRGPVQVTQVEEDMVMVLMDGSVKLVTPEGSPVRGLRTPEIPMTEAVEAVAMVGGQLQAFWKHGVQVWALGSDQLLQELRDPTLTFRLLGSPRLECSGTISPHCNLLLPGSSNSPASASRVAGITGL
In data set [2] the target is T1, Mitogen-activated protein kinase kinase kinase kinase 1. Put plainly: Inhibition of HPK1 in human T cells assessed as increase in IL-2 secretion measured after 24 hrs by ELISA method. Type of data set: cell-based, T-cell. The conditions noted are these: for Activity: T-cell.
For data set [3] the target is unchanged. Put plainly: Inhibition of HPK1 in human T cells assessed as increase in IL-2 secretion at 333 nM incubated for 2 hrs and measured after 24 hrs by ELISA method. Type of data set: cell-based. As to conditions: T-cell. Background: ELISA stands for enzyme-linked immunosorbent assay.
Target sequence in this assay (Q92918 whole entry, looked up, the tested form may be a part): as the sequence (Q92918 whole entry, the tested form may be a part) above
The nature of data set [4]: Cmax in overnight fasted rat at 10 mg/kg, po. Type of data set: ADME, organism-based. As to conditions: in vivo.
For data set [5], the target named is Voltage-gated inwardly rectifying potassium channel KCNH2 (Homo sapiens, UniProt Q12809). The experiment in a line: Inhibition of HERG expressed in HEK293 cells at -80mV holding potential incubated for 24 to 48 hrs by whole-cell patch clamp method. On the technique in general: The patch-clamp technique gives a direct electrical read-out from membranes.
Data set [6] can be described thus: Cmax in overnight fasted mouse at 10 mg/kg, po. The conditions noted are these: in vivo. Type of data set: ADME, organism-based.
Data set [7] in a line: AUC (0 to 24 hrs) in overnight fasted mouse at 10 mg/kg, po. Type of data set: ADME, organism-based. As to conditions: in vivo.
The nature of data set [8]: AUC (0 to 24 hrs) in overnight fasted rat at 10 mg/kg, po. Type of data set: ADME, organism-based. The conditions noted are these: in vivo.
Data set [9] in a line: Half life in overnight fasted rat at 1 mg/kg, iv. Type of data set: ADME, organism-based. As to conditions: in vivo.
The nature of data set [10]: Plasma Clearance in overnight fasted rat at 1 mg/kg, iv. Type of data set: ADME, organism-based.
Data set [11] can be described thus: Half life in overnight fasted mouse at 1 mg/kg, iv. Type of data set: ADME, organism-based. As to conditions: in vivo.
Data set [12] in a line: Plasma clearance in overnight fasted mouse at 1 mg/kg, iv. Type of data set: ADME, organism-based.
For data set [13], the target named is T1, Mitogen-activated protein kinase kinase kinase kinase 1. Put plainly: Inhibition of HPK1 in human Jurkat cells assessed as reduction in SLP76 phosphorylation pretreated for 1 hr followed by anti-CD3 addition and measured after 15 min by ELISA method. Type of data set: cell-based.
Target sequence in this assay (Q92918 whole entry, the tested form may be a part): as above
The nature of data set [14]: Oral bioavailability in in overnight fasted mouse at 10 mg/kg. Type of data set: ADME, organism-based. The conditions noted are these: in vivo.

Chain of Voltage-gated inwardly rectifying potassium channel KCNH2 (Q12809 whole entry): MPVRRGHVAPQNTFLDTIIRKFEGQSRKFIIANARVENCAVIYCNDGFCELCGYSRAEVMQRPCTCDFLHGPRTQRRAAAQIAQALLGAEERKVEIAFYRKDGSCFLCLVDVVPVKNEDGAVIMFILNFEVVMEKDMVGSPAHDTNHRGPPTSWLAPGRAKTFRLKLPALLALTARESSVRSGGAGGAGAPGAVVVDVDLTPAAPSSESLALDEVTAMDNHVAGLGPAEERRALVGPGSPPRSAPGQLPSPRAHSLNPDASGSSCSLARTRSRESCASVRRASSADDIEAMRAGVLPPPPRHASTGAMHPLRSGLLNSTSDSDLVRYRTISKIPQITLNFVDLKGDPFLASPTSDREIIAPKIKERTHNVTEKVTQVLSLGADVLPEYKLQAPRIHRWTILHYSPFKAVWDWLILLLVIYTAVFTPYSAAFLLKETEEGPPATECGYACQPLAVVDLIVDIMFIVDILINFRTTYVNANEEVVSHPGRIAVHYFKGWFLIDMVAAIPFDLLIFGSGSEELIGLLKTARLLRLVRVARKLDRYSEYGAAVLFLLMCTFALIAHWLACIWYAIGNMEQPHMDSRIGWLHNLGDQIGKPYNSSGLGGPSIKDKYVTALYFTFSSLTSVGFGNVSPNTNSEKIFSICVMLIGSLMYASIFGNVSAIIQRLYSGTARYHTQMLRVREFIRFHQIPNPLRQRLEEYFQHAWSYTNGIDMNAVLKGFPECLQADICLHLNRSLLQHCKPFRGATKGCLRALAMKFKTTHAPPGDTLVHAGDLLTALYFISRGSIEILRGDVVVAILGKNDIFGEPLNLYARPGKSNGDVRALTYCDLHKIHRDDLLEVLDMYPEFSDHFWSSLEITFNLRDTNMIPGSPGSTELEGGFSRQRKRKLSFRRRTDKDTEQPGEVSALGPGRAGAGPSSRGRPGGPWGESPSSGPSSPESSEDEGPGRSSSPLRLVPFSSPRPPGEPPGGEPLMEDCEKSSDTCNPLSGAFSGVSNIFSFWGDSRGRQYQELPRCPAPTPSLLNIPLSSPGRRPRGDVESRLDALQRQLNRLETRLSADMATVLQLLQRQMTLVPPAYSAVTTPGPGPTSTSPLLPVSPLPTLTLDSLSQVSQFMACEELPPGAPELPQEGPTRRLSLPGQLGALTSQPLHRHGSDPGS

Turning to `O=c1[nH]ncc2c(-c3cnc4cc(F)ccn34)ccc(Nc3ccc(C4CCOCC4)c(CN4CCC(O)C4)n3)c12` (stereo not drawn), the IC50 in data set [1] is 39.1 nM. Also, in data set [2], the EC50 amounted to 223 nM and the Activity entry was “Dose-dependent-effect”.
With `CN(C)Cc1nc(Nc2ccc(-c3cnc4cc(F)ccn34)c3c2C(=O)NC3)ccc1C1CCOCC1`, the outcome in [3] was Active. Further, the maximum concentration (Cmax) in [4] stood at 74 ng/mL; in data set [6], 282 ng/mL. In data set [5], this molecule returned an IC50 of 2850 nM. Besides, the AUC(0-t) in [7] was found to be 1350 ng·h/mL; in data set [8] it was 312 ng·h/mL. In addition, the values for the half-life in data set [9] and in data set [11] were 84 min and 30 min, respectively. Further, the clearance stood at 230 mL/min/kg in [10] and 269 mL/min/kg in [12].
For `CN(C)Cc1nc(Nc2ccc(-c3cnc4cc(F)ccn34)c3cn[nH]c(=O)c23)ccc1C1CCOCC1`, the half-maximal effective concentration (EC50) in data set [13] was 19.2 nM. The Cmax in data set [6] was 725 ng/mL. This molecule also showed an AUC(0-t) in data set [7] of 477 ng·h/mL. Also, in data set [1], the IC50 is 6.9 nM. This molecule also had a bioavailability in [14] of 77%. Moreover, the half-life in data set [11] was 12 min. In data set [2], the concentration giving a half-maximal response (EC50) amounted to 123 nM and the Activity result is “Dose-dependent-effect”. In data set [12], this molecule yielded a clearance of 263 mL/min/kg.
For the molecule `CN(C)Cc1nc(Nc2ccc(-c3cnc4cc(F)ccn34)c3c2C(=O)NCC3)ccc1C1CCOCC1`, the IC50 in data set [1] came to 525 nM.
With `CN(C)Cc1nc(Nc2ncc(-c3cnc4cc(F)ccn34)c3cn[nH]c(=O)c23)ccc1C1CCOCC1`, the 50% inhibitory concentration (IC50) in data set [1] was determined as 539 nM.
On the same count and under the same terms, under `CN(C)Cc1nc(Nc2ccc(-c3cnc4cc(F)ccn34)c3c(F)c[nH]c(=O)c23)ccc1C1CCOCC1` stands greater than 1000 nM.
With `O=c1[nH]ncc2c(-c3cnc4cc(F)ccn34)ccc(Nc3ccc(C4CCOCC4)c(CN4CC[C@@H](F)C4)n3)c12`, the concentration for a half-maximal effect (EC50) in data set [13] is 55 nM. In data set [1], the IC50 is 34 nM. Further, in data set [2], the EC50 came to 373 nM and the Activity result is “Dose-dependent-effect”.
Take `O=C(NCc1nc(Nc2ccc(-c3cnc4cc(F)ccn34)c3cn[nH]c(=O)c23)ccc1C1CCOCC1)NC1CC1`: the IC50 in data set [1] is greater than 1000 nM.
Regarding `CN(C)Cc1nc(Nc2ccc(-c3cnc4cc(F)ccn34)c3cc[nH]c(=O)c23)ccc1C1CCOCC1`, the EC50 in [13] was 76 nM. Besides, in data set [6], the highest level (Cmax) was 308 ng/mL. The exposure AUC(0-t) in data set [7] came out at 892 ng·h/mL. For the same molecule, in [1], the IC50 stood at 20 nM. For the same molecule, the bioavailability in [14] came out at 86%. In data set [11], the half-life is 24 min. In data set [2], the 50% effective concentration (EC50) stood at 220 nM and the Activity entry is “Dose-dependent-effect”. The molecule also displayed a clearance in data set [12] of 159 mL/min/kg.
Regarding `COC1CCN(Cc2nc(Nc3ccc(-c4cnc5cc(F)ccn45)c4cn[nH]c(=O)c34)ccc2C2CCOCC2)C1` (stereo not drawn), the EC50 in data set [13] amounted to 32 nM. Besides, the IC50 in data set [1] came out at 24.4 nM. Moreover, in data set [2], the half-maximal effective concentration (EC50) stood at 254 nM and the Activity entry is “Dose-dependent-effect”.
As for `Cc1cc2c(-c3cnc4cc(F)ccn34)ccc(Nc3ccc(C4CCOCC4)c(CN(C)C)n3)c2c(=O)[nH]1`, in data set [1], the IC50 was greater than 1000 nM.
As for `O=c1[nH]ncc2c(-c3cnc4cc(F)ccn34)ccc(Nc3ccc(C4CCOCC4)c(CN4CC[C@H](F)C4)n3)c12`, in data set [13], the EC50 came to 14 nM. The Cmax in [6] was found to be 484 ng/mL. The molecule also showed an exposure AUC(0-t) in [7] of 506 ng·h/mL. In data set [1], the IC50 was determined as 5.4 nM. In addition, the bioavailability in [14] turned out to be 31%. Further, the half-life in [11] was 30 min. In addition, in [2], the concentration for a half-maximal effect (EC50) turned out to be 187 nM and the Activity entry is “Dose-dependent-effect”. For the same molecule, in data set [12], the clearance worked out at 104 mL/min/kg.

Usually IC50 stands for the concentration that gives 50% inhibition. Broadly, the EC50 is the concentration needed to bring the measured effect to its halfway point. A word on the Cmax: it is the highest concentration seen after dosing. The AUC(0-t) is the area under the concentration-time curve up to a stated or last time point. Read a high AUC(0-t) as more exposure. Broadly, the half-life is the time needed for the level to fall by half in the phase considered. Higher therefore signals slow loss. Broadly, the clearance is the volume of plasma or blood freed of the substance per unit of time. The low end stands for a low capacity for elimination, the high end for a high capacity for elimination. By bioavailability is commonly meant the share of a dose that reaches the circulation, judged against a reference dose that is usually intravenous. Read a high bioavailability as much systemic uptake.
